Patent US9403815B2, “Compounds and uses thereof in modulating levels of various amyloid beta peptide alloforms” (The Regents of the University of California, priority 2010, dated 2016)
≈ marks a conversion by molar mass, not a printed value. Like-named read-outs stand apart in the source and are kept apart here.

Experiments:
[1] = tested on: Aβ42; assay: Sandwich ELISA for inhibition of Aβ42 secreted by SH-SY5Y-APP cells; assay type: cell-based; conditions: Homo sapiens
Description: (§1) The SH-SY5Y-APP human cell line was derived by transfecting a human neuroblastoma (SH-SY5Y) cell line with a plasmid expressing wild type human APP751 cDNA and selecting for stable expression of human APP and human Aβ. In each case, the levels of Aβ42 or Aβtotal or Aβ38 peptides secreted into the media of these cells were measured using either two-site monoclonal antibody (mAb)-based sandwich ELISA assays (described below for Aβ42 and Aβtotal) or in the case of Aβ38 EC50's, using either the Meso Scale Aβ38, 40, 42 triplex kit along with the Meso Scale Sector Imager 6000 according to the manufacturer's protocols. This SH-SY5Y-APP human cell line was used for all cell-based Aβ peptide immunochemical assays.
(§2) SH-SY5Y-APP cells were plated at 75,000 cells/well in 96-well tissue culture plates. After 16-18 h, the culture medium was replaced with fresh medium containing either compound or vehicle. Replicates of 3 wells per test concentration were used, with 10 concentrations at ½ log step intervals. Vehicle (0.12% DMSO) is included as a control.
The Sandwich ELISA Assay for Measuring Inhibition of Aβ42 and Determination of Aβ42 IC50 Inhibition Values
An Anti-Aβ35-42 coating monoclonal antibody which is specific for the Aβ42 peptide, stored in 60 μl aliquots at −80° C. (thaw once and discard after use).
An Anti-Aβ1-12 alkaline phosphatase-conjugated monoclonal antibody, stored at 4° C.
Anti-Aβ35-42 monoclonal antibody was diluted 1/300 in 1×TBS. After vortexing, pipette 100 μl of antibody into each well of microplate. The antibody covered the entire bottom of each well. Each microplate was covered with a plate sealer and placed at 4° C. for 19 h.
Microplates were removed from the cold room, the coating monoclonal antibody were aspirated off from all wells. Each well was rinsed once with 200 μl TBS^2. The wells were blocked by pipetting 200 μl of 1% BSA/TBS blocking solution per well and the plates incubated at room temperature for 60 minutes on a laboratory benchtop.
Sample addition to plates: Directly following the 60 min block step, blocking buffer was aspirated off and 50 μl of sample was pipetted to each well and then standard curve samples (50 μl) were added in duplicate to top 2 rows.
The plates were incubated at room temperature for 2 h.
Anti-Aβ1-12 mAb-alkaline phosphatase conjugate was diluted 1/10,000 in 1% BSA/TBS/0.1% Tween-20 and vortexed. 50 μl was pipetted into each well of the microplate.
To all plates, 50 μl of CDP-Star (Sapphire) luminescence substrate (brought to room temperature prior to use) was added to each well and incubated for 15 min at room temperature in the dark. The timer was started after finishing adding the substrate to the first plate of the group. This step was done with a group of 5 plates or less.
Each microplate was read in a Glow Runner luminometer^3.
Data Analysis (Apply to Both Aβ42 and Aβtotal Sandwich ELISA Assays):
A. Calculations • 1. Average the sample values and calculate the SD (standard deviation) and % CV (all datapoints must be <30%). If not, determine if one well is an outlier by using the Grubbs test (Graphpad website). • 2. Convert sample values to pg/well using the linear fit of the standard curve. Footnotes (Apply to Both Aβ42 and Aβtotal Sandwich ELISA Assays)

[2] = tested on: Aβtotal; assay: Sandwich ELISA for total Aβ peptides secreted by SH-SY5Y-APP cells; assay type: cell-based, human
Description: as §1, §2
The Sandwich ELISA ASSAY for Measuring Inhibition of Total Aβ Peptides and Determination of Aβtotal Peptides IC50 Inhibition Values
Anti-Aβ1-12 monoclonal antibody was diluted 1/100 in 1×TBS. Vortex. 100 μl was pipetted into each well of a microplate. The coating monoclonal antibody covered the entire bottom of each well. Each microplate was covered with a plate sealer and placed in the refrigerator overnight.
Microplates were removed from the refrigerator and each well was rinsed with 200 μl TBS. The wells were blocked by pipetting 200 μl 1% BSA/TBS per well of each microplate. The microplates were incubated at room temperature for 60 minutes.
50 μl of sample was pipetted at the appropriate dilution into designated wells of the microplates. The microplates were incubated at room temperature for 2 hrs.
The biotinylated monoclonal antibody (anti-human Amyloid Beta Protein, Clone 4G8) was diluted 1/5000 in 1% BSA/TBS/0.1% Tween-20. After vortexing, 50 μl was pipetted into each well of each microplate. The microplates were incubated at room temperature on a laboratory bench top for 1 hour.
Alkaline Phosphatase Conjugated Streptavidin was diluted 1/10,000 in 1% BSA/TBS/0.1% Tween-20. Vortex. 50 μl was pipetted into each well of microplate. The microplates were incubated at room temperature on bench top for 1 h.
After finishing washing the microplates (≦5 microplates per assay), 50 μl of CSPD-Sapphire luminescence substrate (brought room temperature prior to use) was added to each well and the wells were incubated for 15 minutes at room temperature in the dark. The timer was started after finishing of the adding of the substrate solution to the first plate of the group of microplates. […]
Plates were read in a Glow Runner luminometer. […]

[3] = tested on: Aβ38; assay: Meso Scale Aβ38, 40, 42 triplex assay for potentiation of Aβ38 in SH-SY5Y-APP cells; assay type: cell-based; conditions: Homo sapiens, Meso Scale triplex kit
Description: as §1, §2

[4] = Solubility at pH 6.6 and pH 7.4; assay type: physicochemical
[5] = tested on: NOTCH; assay: Western blot of NOTCH proteolysis (NICD production) in H4-APP751 cells transfected with NδED; assay type: cell-based, human; conditions: 500 nM, 24 hrs
Description: Stable H4 human neuroglioma cells over-expressing human APP751 (H4-APP751 cells), were transfected with the NδED construct (Lanes 1-6), and then treated with vehicle (DMSO; Lanes 1-2 Control), 500 nM GSM41 (test compound), or 500 nM DAPT (Lanes 5-6 inhibitor of gamma secretase) for another 24 hrs. Additionally H4-APP751 cells were transfected with the NICD construct (as a reference of NICD; Lanes 7-8). Cells were harvested 48 hrs post transfection and subjected to Western blotting analysis. Myc antibody was utilized to assess the NδED and NICD tagged with Myc on their N-termini. β-Actin was utilized as the loading control.

[6] = pH 6.6, aqueous buffer, pH6.6, read-out: Solubility (μM) pH6.6

IC50 [1] [nM]	SMILES	also measured
250 to 500	Cc1cn(-c2ccc(-c3csc(Nc4cc(C(C)(C)C)nn4C)n3)cc2)cn1 [Compound 27]	Total Aβ [2]: No Change
100 to 250	Cc1cn(-c2ccc(-c3csc(Nc4cc(C(C)(C)C)nn4C)n3)cc2F)cn1 [Compound 28]	
100 to 250	COc1cc(-c2csc(Nc3cc(C(C)(C)C)nn3C)n2)ccc1-n1cnc(C)c1 [Compound 29]	
> 500	Cc1cn(-c2ccc(-c3csc(Nc4cc(C(C)(C)C)nn4C)n3)cn2)cn1 [Compound 30]	
100 to 250	Cc1cn(-c2ccc(-c3csc(Nc4c5c(nn4C)CCCC5)n3)cc2)cn1 [Compound 31]	Total Aβ [2]: No Change
100 to 250	Cc1cn(-c2ccc(-c3csc(Nc4c5c(nn4C)CCCC5)n3)cc2F)cn1 [Compound 32]	
100 to 250	COc1cc(-c2csc(Nc3c4c(nn3C)CCCC4)n2)ccc1-n1cnc(C)c1 [Compound 33]	
> 500	Cc1cn(-c2ccc(-c3csc(Nc4c5c(nn4C)CCCC5)n3)cn2)cn1 [Compound 34]	Total Aβ [2]: No Change
100 to 250	CCn1nc(C(C)(C)C)cc1Nc1nc(-c2ccc(-n3cnc(C)c3)cc2)cs1 [Compound 35]	
< 100	CCn1nc(C(C)(C)C)cc1Nc1nc(-c2ccc(-n3cnc(C)c3)c(F)c2)cs1 [Compound 36]	EC50 [3]: > 500 nM; Total Aβ [2]: No Change
< 100	CCn1nc(C(C)(C)C)cc1Nc1nc(-c2ccc(-n3cnc(C)c3)c(OC)c2)cs1 [Compound 37]	EC50 [3]: 100 to 250 nM
250 to 500	CCn1nc(C(C)(C)C)cc1Nc1nc(-c2ccc(-n3cnc(C)c3)nc2)cs1 [Compound 38]	
> 500	CCn1nc2c(c1Nc1nc(-c3ccc(-n4cnc(C)c4)cc3)cs1)CCCC2 [Compound 39]	solubility [4, 6]: 2.3 µM (≈ 0.93 µg/mL)
100 to 250	CCn1nc2c(c1Nc1nc(-c3ccc(-n4cnc(C)c4)c(F)c3)cs1)CCCC2 [Compound 40]	
< 100	CCn1nc2c(c1Nc1nc(-c3ccc(-n4cnc(C)c4)c(OC)c3)cs1)CCCC2 [Compound 41]	EC50 [3]: > 500 nM; solubility [4, 6]: 7.9 µM (≈ 3.43 µg/mL); solubility ([4]; pH 7.4, aqueous buffer, pH7.4, read-out: Solubility (μM) pH7.4): 6.4 µM (≈ 2.78 µg/mL); NICD levels (NOTCH proteolysis) compared to control [5]: did not change NICD levels
> 500	CCn1nc2c(c1Nc1nc(-c3ccc(-n4cnc(C)c4)nc3)cs1)CCCC2 [Compound 42]	
100 to 250	COc1cc(-c2csc(Nc3cc(C(C)(C)C)nn3C(C)C)n2)ccc1-n1cnc(C)c1 [Compound 43]	
< 100	CCCn1nc(C(C)(C)C)cc1Nc1nc(-c2ccc(-n3cnc(C)c3)c(OC)c2)cs1 [Compound 45]	
< 100	Cc1cn(-c2ccc(-c3csc(Nc4cc(C(C)(C)C)nn4C(C)C)n3)cc2F)cn1 [Compound 46]	
< 100	CCCn1nc(C(C)(C)C)cc1Nc1nc(-c2ccc(-n3cnc(C)c3)c(F)c2)cs1 [Compound 48]	
< 100	CCn1nc2c(c1Nc1nc(-c3ccc(-n4cnc(C)c4)c(OC)n3)cs1)CCCC2 [Compound 49]	
	C[C@H](NC(=O)Cc1cc(F)cc(F)c1)C(=O)N[C@H](C(=O)OC(C)(C)C)c1ccccc1 [DAPT, reference compound]	NICD levels (NOTCH proteolysis) compared to control [5]: decreased NICD levels
